{"source": "patent US9623047B2", "about": "“Composition and method for improving gastrointestinal health of equine” (Photo Finish Supplements, LLC, priority 2012, dated 2017)", "origin": "cited, not measured here", "key": {"[1]": {"test_system": "tooth pulp and periapical tissue", "conditions": "protective barrier in dental repair and treatment"}}}
{"compound": "[Ca+2].[OH-].[OH-]", "note": "[Ca(OH)2, calcium hydroxide]", "values": [{"measurement": "DNA synthesis of tooth pulp cells", "setting": "tooth pulp cells", "result": "increase"}, {"measurement": "anti-microbial action", "setting": "[1]", "result": "powerful anti-microbial action"}, {"measurement": "effect on regrowth of damaged tissue", "setting": "[1]", "result": "significant stimulatory effect"}]}
